Laboratory results published in US20090155395A1 (SAGITTARIUS LIFE SCIENCE CORP., priority 2007, published 2009).
In brackets after ≈: the same amount, converted by molar mass. Like-named read-outs stand apart in the source and are kept apart here.

Legend:
[1] = Free radical scavenger, SOD mimetic activity (xanthine-xanthine oxidase / NBT reduction); format: biochemical; details: inhibition of NBT reduction, pH 10.5, 25° C., 20 minutes
Method: (§1) The method to measure SOD (SOD, EC.1.15.1.1) activity was based on the inhibition of nitroblue tetrazolium reduction with xanthine-xanthine oxidase used as a superoxide generator (Sun Y, et. al., Clin. Chem. 1988; 34: 497-500).
(§2) Conversion of xanthine to uric acid +O^−+NBT to formazan was then determined by measurement of absorbance at 595 nm and percent inhibition by superoxide dismutase mimetic or test compound was calculated.

[2] = target: xanthine-xanthine oxidase (superoxide generator); assay: Superoxide dismutase (SOD) mimetic activity, inhibition of nitroblue tetrazolium reduction; format: biochemical; details: 0.12 mM xanthine, 6 mU xanthine oxidase, 27 μM NBT, pH 10.5, 25° C., 20 minutes
Method: as §1, §2

[3] = system: Propionibacterium acnes (ATCC 6919); assay: Minimum inhibitory concentration (MIC), broth dilution method; format: cell-based
Method: Minimum inhibitory concentration (MIC) was determined by the broth dilution method (Edwards, J. R. et. al., Antimicrob Agents Chemother. 1989; 33(2):215-22).
10 ul aliquot (1% DMSO final concentration) of serial dilutions were added into 0.99 ml of Reinforced Clostridial Medium (Oxiod, England.) with 1-5×10^5 CFU/ml of Propionibacterium acnes (ATCC 6919). […] Vehicle-control and active reference agents were used as blank and positive controls, respectively.

[4] = target: T1, Steroid 5-α-reductase isolated from liver of Wistar rat (Rattus norvegicus, UniProt P24008); assay: Steroid 5-α-reductase inhibition (testosterone EIA); format: biochemical; details: rat liver enzyme, 1 μM testosterone, 30 minutes
T1 construct: isolated from liver of Wistar rat by conventional centrifugation; from tissue; host or cells: liver of Wistar rat
T1 sequence (P24008 1-259): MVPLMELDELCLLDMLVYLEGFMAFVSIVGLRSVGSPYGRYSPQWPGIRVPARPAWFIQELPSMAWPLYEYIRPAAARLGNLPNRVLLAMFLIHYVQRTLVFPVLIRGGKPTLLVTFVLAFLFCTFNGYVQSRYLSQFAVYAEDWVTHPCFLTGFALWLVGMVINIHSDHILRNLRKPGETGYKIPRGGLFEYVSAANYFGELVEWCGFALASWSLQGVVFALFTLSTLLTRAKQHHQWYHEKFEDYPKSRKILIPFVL
Description: Steroid 5-α-reductase isolated from liver of Wistar rat by conventional centrifugation was used (Liang T, et. al., Endocrinology. 1985;117(2): 571-9).
The reaction was terminated by addition of 1 N HCl and neutrilized by 1 N NaOH. Testosterone was quantitated by using a Testosterone EIA Kit.

[5] = target: T2, Human recombinant Cyclooxygenase-2 expressed in Sf21 cells (Homo sapiens, UniProt P35354); assay: COX II inhibition (PGE2 EIA); format: biochemical; details: human recombinant enzyme, 0.3 μM arachidonic acid
T2 construct: purchased Sigma C-0858; host or cells: Sf21 cells
T2 sequence (P35354 18-604): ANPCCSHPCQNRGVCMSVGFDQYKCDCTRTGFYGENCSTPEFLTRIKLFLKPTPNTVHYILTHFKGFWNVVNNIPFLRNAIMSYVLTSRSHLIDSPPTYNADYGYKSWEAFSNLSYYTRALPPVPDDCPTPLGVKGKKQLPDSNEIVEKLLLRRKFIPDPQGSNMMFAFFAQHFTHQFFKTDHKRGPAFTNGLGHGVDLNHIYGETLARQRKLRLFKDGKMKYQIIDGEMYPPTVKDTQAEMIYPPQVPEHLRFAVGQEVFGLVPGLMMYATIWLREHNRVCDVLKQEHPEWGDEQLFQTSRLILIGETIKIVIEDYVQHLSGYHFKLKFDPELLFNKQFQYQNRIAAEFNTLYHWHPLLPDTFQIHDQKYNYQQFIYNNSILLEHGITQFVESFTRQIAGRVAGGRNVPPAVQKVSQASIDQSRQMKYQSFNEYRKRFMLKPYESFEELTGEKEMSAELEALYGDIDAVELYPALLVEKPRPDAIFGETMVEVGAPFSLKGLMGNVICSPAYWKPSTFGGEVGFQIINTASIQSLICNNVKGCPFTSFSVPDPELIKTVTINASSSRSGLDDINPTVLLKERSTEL
Method: The reaction was initiated by addition of 0.3 μM arachidonic acid for 5 minutes and terminated by further addition of 1 N HCl. Following centrifugation, substrate conversion to PGE2 was measured by an Amersham EIA kit.

[6] = Cutibacterium acnes, ATCC6919, broth dilution, 37° C., 48 hours, anaerobic, read-out: MIC

Q: Which “IC50, SOD mimetic activity” value [1] does the source give for `O=C(O[C@@H]1Cc2c(O)cc(O)cc2O[C@@H]1c1ccc(O)c(O)c1)c1cc(O)c(O)c(O)c1` [(−)-Epicatechin gallate] here?
A: Its value is 2.698 µg/mL (≈ 6.1 µM).

Q: What about the IC50 [2] of the same compound?
A: The IC50 was 2.698 µg/mL (≈ 6.1 µM).

Q: Which MIC [3, 6] does the source give for `CC1(C)S[C@@H]2[C@H](NC(=O)[C@H](N)c3ccccc3)C(=O)N2[C@H]1C(=O)O` [Ampicillin] here?
A: Its MIC is 0.1 µg/mL (≈ 0.286 µM).

Q: With `CC(C)(C)NC(=O)[C@H]1CC[C@H]2[C@@H]3CC[C@H]4NC(=O)C=C[C@]4(C)[C@H]3CC[C@]12C` [Finasteride] as the compound, how does the IC50 [4] read?
A: Its IC50 is 25 nM.

Q: For `O=C(O)c1cccnc1Nc1cccc(C(F)(F)F)c1` [Niflumic acid], which IC50 [5] is on record?
A: The IC50 was 691 nM.

Q: Which MIC [3, 6] does the source give for `CC1COc2c(N3CCN(C)CC3)c(F)cc3c(=O)c(C(=O)O)cn1c23` (centres unmarked) [Ofloxacin] here?
A: The MIC was 1 µg/mL (≈ 2.77 µM).

Q: With `CN(C)[C@@H]1C(O)=C(C(N)=O)C(=O)[C@@]2(O)C(O)=C3C(=O)c4c(O)cccc4[C@@](C)(O)[C@H]3C[C@@H]12` [Tetracycline] as the compound, how does the MIC [3, 6] read?
A: The MIC was 1 µg/mL (≈ 2.25 µM).

Q: With `CN[C@H](CC(C)C)C(=O)N[C@H]1C(=O)N[C@@H](CC(N)=O)C(=O)N[C@H]2C(=O)N[C@H]3C(=O)N[C@H](C(=O)N[C@H](C(=O)O)c4cc(O)cc(O)c4-c4cc3ccc4O)[C@H](O)c3ccc(c(Cl)c3)Oc3cc2cc(c3O[C@@H]2O[C@H](CO)[C@@H](O)[C@H](O)[C@H]2O[C@H]2C[C@](C)(N)[C@H](O)[C@H](C)O2)Oc2ccc(cc2Cl)[C@H]1O` [Vancomycin] as the compound, how does the MIC ([3]; Cutibacterium acnes, ATCC6919, 48 h) read?
A: The MIC was 1 µg/mL (≈ 0.69 µM).

Q: For `CCCCC/C=C\C/C=C\C/C=C\CCCCC(=O)O` [γ-Linolenic Acid], which IC50 [4] is on record?
A: Its IC50 is 14000 nM.

Q: For Gentamicin, which MIC ([3]; broth dilution, 37° C., 48 hours, anaerobic) is on record?
A: The MIC was 30 µg/mL.

Q: With “Superoxide dismutase (SOD): standard reference agent used, Human SOD MW = 2 × 28.3 KDa” as the compound, how does the “IC50, SOD mimetic activity” value [1] read?
A: The value was 0.475 µg/mL.
